Reference: publication PMC5050210, “BdorOBP83a-2 Mediates Responses of the Oriental Fruit Fly to Semiochemicals” (Frontiers in Physiology, 2016)
pIC50, pKd: −log10 of the molar value.

Assays:
[1] = biological target: T1, BdorOBP83a-1 (Bactrocera dorsalis, UniProt A0A0G2UGI4); experiment: biochemical; set-up: Fluorescence competitive displacement of 1-NPN from recombinant OBP, 25 °C, pH 7.4; competitor 5-50 uM; conditions: 1-NPN displacement, Kd from IC50, extrapolated
T1 construct: gene OBP83a-1; mature protein without signal peptide
T1 sequence (A0A0G2UGI4 32-155): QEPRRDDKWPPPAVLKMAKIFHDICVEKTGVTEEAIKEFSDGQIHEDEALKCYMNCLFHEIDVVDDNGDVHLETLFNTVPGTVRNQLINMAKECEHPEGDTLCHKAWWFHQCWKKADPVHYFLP
Protocol: (§1) Fluorescence spectra were measured on an F-7000 FL Fluorescence Spectrophotometer (Hitachi) in a 10 mm light path quartz cuvette at 25°C. All were excited at 337 nm with emission and excitation slit of both 10 nm. The emission spectra were recorded between 350 and 500 nm. […] All measurements were performed in triplicates and mean values and standard errors are calculated. […] To determine the roles of specific OBPs in recognition of attractants in B. dorsalis, recombinant proteins of selected antenna-abundant OBPs and CSPs were obtained using a prokaryotic expression system (Figure 5). Purified OBPs and CSPs were used to determine binding affinity of each protein via fluorescence competitive binding assays. Thirteen pure attractant compounds were tested against each recombinant protein. […] Except for BdorCSP3 and BdorOBP84a-2, all remaining OBPs could bind to the tested compounds (Figure 6; Table S8). […] Alternatively they might be involved in functions other than odor detection. […] Overall, we observed lower binding affinity with our recombinant proteins and tested attractants. […] In other studies, much higher affinity has been reported. For example, competitive binding assays with a lepidopteran pheromone-binding protein can reach nearly 100% displacement (Hooper et al., [2009]; Gu et al., [2013]), and competitive binding assays with an aphid OBP (OBP7) can reach about 80% displacement with the alarm pheromone (E)-ss-farnesene (Sun et al., [2012]). The biological significance of the observed lower affinity with B. doralis OBPs here remains to be determined. It could be due to diverse binding mechanisms between different functional OBPs and the corresponding compounds. Alternatively, BdorOBP83a-2 may […] The sequences of BdorOBPs and BdorCSPs encoding mature proteins (without signal peptide) were amplified by PCR using specific primers carrying a restriction site EcoRI or XhoI (Table S2). PCR fragments were digested with both EcoRI and XhoI enzymes and the released DNA fragments were cloned into a PET-32a vector (Invitrogen), which were used to transform BL21 (DE3) E. coli competent cells (Invitrogen). A selected positive clone was grown overnight in 5 mL [compound left out] LB/ampicillin medium overnight at 37°C. Protein expression was induced with 1 mM IPTG for 3 h when the culture had reached an OD600-value of 0.7–0.9. Cells were then harvested by centrifugation and lysed by sonication. After sonication and centrifugation, most recombinant proteins were present in inclusion bodies. […] Renaturation of purified proteins were accomplished by gradient dilution at 4°C. His-tag was removed by digestion with recombinant enterokinase (Novagen) and the digested mixtures were passed through a HisTrap affinity column to remove any undigested protein. At each step during protein preparation and purification, protein extracts, and purified proteins were examined on 15% SDS-PAGE.

[2] = biological target: T2, BdorOBP56h (Bactrocera dorsalis, UniProt A0A0G2UMU0); experiment: biochemical; set-up: Fluorescence competitive displacement of 1-NPN from recombinant OBP, 25 °C, pH 7.4; competitor 5-50 uM; conditions: 1-NPN displacement; for pIC50: 2 uM protein, 2 uM 1-NPN, extrapolated, read-out: BdorOBP56 / IC50; for pKd: Kd from IC50, extrapolated, read-out: BdorOBP56 / Kd
T2 construct: gene OBP56h; mature protein without signal peptide
T2 sequence (A0A0G2UMU0 20-136): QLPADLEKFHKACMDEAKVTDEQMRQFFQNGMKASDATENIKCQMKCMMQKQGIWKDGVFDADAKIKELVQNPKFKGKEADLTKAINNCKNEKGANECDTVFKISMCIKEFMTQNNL
Protocol: as §1

[3] = biological target: T3, BdorOBP83a-2 (Bactrocera dorsalis, UniProt A0A0G2UEQ3); experiment: biochemical; set-up: Fluorescence competitive displacement of 1-NPN from recombinant OBP, 25 °C, pH 7.4; competitor 5-50 uM; conditions: 1-NPN displacement, Kd from IC50
T3 construct: gene OBP83a-2; mature protein without signal peptide
T3 sequence (A0A0G2UEQ3 24-148): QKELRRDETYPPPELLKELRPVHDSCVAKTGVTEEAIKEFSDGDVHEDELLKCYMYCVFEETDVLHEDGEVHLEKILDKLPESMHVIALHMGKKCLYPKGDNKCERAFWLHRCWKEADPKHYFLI
Protocol: as §1

[4] = biological target: T1, BdorOBP83a-1; experiment: biochemical; set-up: Fluorescence competitive displacement of 1-NPN from recombinant OBP, 25 °C, pH 7.4; competitor 5-50 uM; conditions: 1-NPN displacement, 2 uM protein, 2 uM 1-NPN, extrapolated
Protocol: (§2) Fluorescence spectra were measured on an F-7000 FL Fluorescence Spectrophotometer (Hitachi) in a 10 mm light path quartz cuvette at 25°C. […] The emission spectra were recorded between 350 and 500 nm. […] All measurements were performed in triplicates and mean values and standard errors are calculated. […] To determine the roles of specific OBPs in recognition of attractants in B. dorsalis, recombinant proteins of selected antenna-abundant OBPs and CSPs were obtained using a prokaryotic expression system (Figure 5). Purified OBPs and CSPs were used to determine binding affinity of each protein via fluorescence competitive binding assays. Thirteen pure attractant compounds were tested against each recombinant protein. […] PCR fragments were digested with both EcoRI and XhoI enzymes and the released DNA fragments were cloned into a PET-32a vector (Invitrogen), which were used to transform BL21 (DE3) E. coli competent cells (Invitrogen). […] LB/ampicillin medium overnight at 37°C. Protein expression was induced with 1 mM IPTG for 3 h when the culture had reached an OD600-value of 0.7–0.9. Cells were then harvested by centrifugation and lysed by sonication. […] Renaturation of purified proteins were accomplished by gradient dilution at 4°C. His-tag was removed by digestion with recombinant enterokinase (Novagen) and the digested mixtures were passed through a HisTrap affinity column to remove any undigested protein. At each step during protein preparation and purification, protein extracts, and purified proteins were examined on 15% SDS-PAGE.

[5] = biological target: T3, BdorOBP83a-2; experiment: biochemical; set-up: Fluorescence competitive displacement of 1-NPN from recombinant OBP, 25 °C, pH 7.4; competitor 5-50 uM; conditions: 1-NPN displacement, 2 uM protein, 2 uM 1-NPN
Protocol: as §2

[6] = biological target: T4, BdorOBP84a-1 (Bactrocera dorsalis, UniProt A0A0G2UGI7); experiment: biochemical; set-up: Fluorescence competitive displacement of 1-NPN from recombinant OBP, 25 °C, pH 7.4; competitor 5-50 uM; conditions: 1-NPN displacement; for pIC50: 2 uM protein, 2 uM 1-NPN, extrapolated; for pKd: Kd from IC50, extrapolated
T4 construct: gene OBP84a-1; mature protein without signal peptide
T4 sequence (A0A0G2UGI7 25-167): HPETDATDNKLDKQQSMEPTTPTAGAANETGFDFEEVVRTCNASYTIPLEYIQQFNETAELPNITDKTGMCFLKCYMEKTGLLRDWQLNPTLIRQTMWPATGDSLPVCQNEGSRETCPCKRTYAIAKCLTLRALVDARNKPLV
Protocol: as §1

[7] = biological target: T3, BdorOBP83a-2; experiment: 1-NPN fluorescence competition; type: binding; conditions: 50 mM Tris-HCl pH 7.4, 25°C; 2 μM protein, 2 μM 1-NPN; competitive displacement
[8] = biological target: T1, BdorOBP83a-1; experiment: 1-NPN fluorescence competition; type: binding; conditions: 50 mM Tris-HCl pH 7.4, 25°C; 2 μM protein, 2 μM 1-NPN; competitive displacement
[9] = biological target: T2, BdorOBP56h; experiment: 1-NPN fluorescence competition; type: binding; conditions: 50 mM Tris-HCl pH 7.4, 25°C; 2 μM protein, 2 μM 1-NPN; competitive displacement
Protocol: 1-NPN fluorescence competition on BdorOBP56h | all remaining OBPs could bind to the tested compounds

[10] = biological target: T4, BdorOBP84a-1; experiment: 1-NPN fluorescence competition; type: binding; conditions: 50 mM Tris-HCl pH 7.4, 25°C; 2 μM protein, 2 μM 1-NPN; competitive displacement
Source text: 1-NPN fluorescence competition on BdorOBP84a-1 | all remaining OBPs could bind to the tested compounds

Structure (SMILES) | pKd [1] | pIC50 [2] | pKd [2] | pKd [3] | pIC50 [4] | pIC50 [5] | pIC50 [6] | pKd [6] | pKd [7] | pKd [8] | pKd [9] | pKd [10]
C/C=C(\C)C(=O)OCC [Ethyl tiglate] | < 4.30 | < 4.30 | < 4.30 | < 4.30 | < 4.30 | < 4.30 |  |  |  |  |  | 
CC1=CCC(=C(C)C)CC1 [Terpinolene] | < 4.30 | < 4.30 | < 4.30 | < 4.30 | < 4.30 | < 4.30 | < 4.30 | < 4.30 |  |  |  | 
C=CCc1ccc(OC)c(OC)c1 [methyl eugenol, 4-allyl-1,2-dimethoxybenzene] |  | < 4.30 |  |  | < 4.30 | 4.29 |  |  | 4.47 | 2.60 | 3.24 | 1.10
CCCCCC1CCC(=O)O1 (centres unmarked) [γ-nonanoic lactone] |  | < 4.30 | < 4.30 |  |  | < 4.30 | < 4.30 | < 4.30 | 4.28 | 1.07 |  | 
CCCCC1CCC(=O)O1 (centres unmarked) [γ-octalactone] |  | < 4.30 | < 4.30 |  | < 4.30 | < 4.30 | < 4.30 | < 4.30 |  |  |  | 
CCCCCCCC1CCC(=O)O1 (centres unmarked) [γ-undecalactone] |  |  |  |  |  |  | < 4.30 | < 4.30 |  |  |  | 
CCCC1CCCC(=O)O1 (centres unmarked) [δ-octalactone] |  | < 4.30 | < 4.30 |  |  | < 4.30 |  |  | 4.26 | 1.90 |  | 
